From patent publication US20090148424A1, “Reversibly immortalized mammalian liver cells and use thereof” (priority 2004, published 2009)

Legend:
CYNK-1 cell = test: Ganciclovir sensitivity of CYNK-1 cell (MTT assay); format: cell-based, human; settings: one-week cultivation with 5 μM of GCV
Description: (§1) Two hundred CYNK-1 cells (deposited with International Patent Organism Depository, National Institute of Advanced Industrial Science and Technology, address: AIST Tsukuba Central 6, 1-1, Higashi 1-Chome, Tsukuba-shi, Ibaraki-ken, 305-8566 Japan, deposited date: Mar. 10, 2004, accession number: FERM BP-08657) were inoculated in a 96-well plate, cultured in CS-C serum free culture medium alone or CS-C serum free culture media containing various concentrations of ganciclovir (5, 10, 20, 50 or 100 μM) and then cell proliferation was investigated by MTT assay (see Mcsmann T. J., Immunol. Methods, 65, 55, 1983).
Cell viability is shown in FIG. 7 as relative sensitivity. Ganciclovir sensitivity of the CYNK-1 cell (deposited with International Patent Organism Depository, National Institute of Advanced Industrial Science and Technology, address: AIST Tsukuba Central 6, 1-1, Higashi 1-Chome Tsukuba-shi, Ibaraki-ken, 305-8566 Japan, deposited date: Mar. 10, 2004, accession number: FERM BP-08657) depends on the concentration of ganciclovir.

reverted CYNK-1 cells = test: Ganciclovir sensitivity of reverted CYNK-1 cells; format: cell-based, human
Description: as §1, with “[…].,” for “Mcsmann T. J.,”, “1983). […] All of the cells died within 10 days.” for “1983).”

What does the source list for `Nc1nc(O)c2ncn(COC(CO)CO)c2n1` [GCV, ganciclovir]?
effect on cell proliferation / viability (CYNK-1 cell): stopped cell proliferation and some of the cells died; time until all of the cells died (reverted CYNK-1 cells; 5 μM of GCV): ≤ 10 days; effect on cell proliferation / viability (reverted CYNK-1 cells; one-week cultivation in the presence of 5 μM of GCV): stopped cell proliferation and some of the cells died
